Laboratory results as given in US20160153991A1, “Synbodies for Detection of Human Norovirus” (priority 2013, published 2016).

Tests used:
Format in all cases: binding, Norovirus
[1] = biological target: nVLP GII.4; assay: Surface plasmon resonance (SPR) screening of optimized peptides against GII.4; conditions: unpurified peptides against nVLP GII.4; for kd-1: SPR dissociation rate; for % Stability / Avg Binding (Spot 1/2): SPR
Description: These 96 peptides were synthesized and tested unpurified against GII.4 via surface plasmon resonance (SPR), a sample of which is shown in FIG. 3. Peptides candidates were analyzed and selected for improved binding and slower dissociation rate. Finally, a list of 10 peptide candidates with improved binding and slower dissociation rates were chosen to construct bivalent peptide affinity reagents (synbodies).

[2] = tested on: GII.4 Minerva VLP
[3] = tested on: GII.4 Sydney VLP; conditions: GII.4 Sydney VLP (VP1 identity 95%)

Row | Substance | kd-1 [1] [s] | % Stability [1] [%] | Avg Binding (Spot 1/2) [1] | Enrichment Factor from 1 ng/μL solution ([2]; GII.4 Minerva VLP (VP1 identity 100%), 1 ng/μL solution) | enrichment of VLP (in words) ([2]; either GII.4 Minerva or both GII.4 Minerva and GII.4 Sydney) | Enrichment Factor from 1 ng/μL solution [3]
1 | RWVRVKLRSHTELNRYIGSC [Mut Peptide-93, optimized peptide] | 0.00332 | 60 | 274.2 |  |  | 
2 | DWARKNNKRKMNFNLGWGSC [Mut Peptide-60, optimized peptide] | 0.00487 | 44 | 134.3 |  |  | 
3 | SWARSNNKRSKAFNLGWGSC [Mut Peptide-78, optimized peptide] | 0.00431 | 46 | 168.8 |  |  | 
4 | Syn 6-6: synbody 6-6 from Table 2; scaffold not stated (Table 2 lists both nVLP6-6-1571 and nVLP6-6MAP2) (RWHRVDLRSHTELPRYIGSC) |  |  |  | 16 | enrichment | n.e.
5 | DWARSNTSRSMDFNLGWGSC [nVLP-2WT] | 0.0233 |  | 2.5 |  |  | 
6 | LLYNKTFPHGRWSPSYPGSC [nVLP-1WT] | 0.00785 | 25 | 71.5 |  |  | 
7 | VWARKNNKRKKDFNAGWGSC [Mut Peptide-53, optimized peptide] | 0.00408 | 51 | 188.8 |  |  | 
8 | RWHRVKLRSHTELNRYIGSC [Mut Peptide-92, optimized peptide] | 0.00355 | 57 | 229.5 |  |  | 
9 | RWHRVDLRSHTELPRYIGSC [nVLP-6WT] | 0.00513 | 37 | 175.7 |  |  | 
10 | RWVRVKLRSHTKLRYIGSC [Mut Peptide-94, optimized peptide] | 0.00294 | 63 | 358.2 |  |  | 
11 | AWARSNNSRSKAFNLGWGSC [Mut Peptide-81, optimized peptide] | 0.00455 | 45 | 127.9 |  |  | 
